Measured values reported in US4290954A, “Tetrahydroxanthone derivatives” (Kowa Company Limited, priority 1978, dated 1981).

Assays:
peritoneal cells = experiment: Inhibitory effects on histamine release (sensitized rat peritoneal cells, OA challenge); type: cell-based, male Sprague-Dawley (SD) rat; conditions: 10 min at 37° C., OA added simultaneously; for minimal effective concentration: 10 min, read-out: Inhibition of Histamine release (lowest effective concentration to inhibit the release of histamine)
Protocol: An anti-ovalbumin (OA) mouse serum (IgE like antibody, PCA titer; 1:400-1:800) was diluted 20 times with physiological saline. A male Sprague-Dawley (SD) rat weighing 300-400 g was passively sensitized by intraperitoneal administration of 5 ml of the diluted serum. 48 Hours later, the rat was decapitated and exsanguinated. 10 ml of Tyrode's solution containing 5 units/ml of heparin was then injected into the peritoneal cavity of the rat. After mixing the solution by gentle massage for 60 seconds, the fluid in the peritoneal cavity was collected and then centrifuged for 5 minutes at 120×g to harvest peritoneal cells. The peritoneal cells were suspended in Tyrode's solution so as to adjust the concentration of 10^6 cells/ml. After preincubating 1.6 ml of the cell suspension for 4 minutes at 37° C., 0.2 ml of each test compound solution and 0.2 ml of OA solution (100 μg/ml) were added simultaneously and thereafter incubated for 10 minutes at 37° C. The reaction was terminated by ice-cooling the mixture, and the thus incubated solution was centrifuged for 5 minutes at 670×g to divide the same into a cell pellet and a supernatant liquid phase. The histamine content in each of the phases was determined by the fluorometric method of Grant et al*. Each tested pharmaceutical compound was used by dissolving it in Tyrode's solution prior to its use.
*Grant, J. A., Settle, L., Whorton, E. B. and Dupree, E., Complement-mediated releast of histamine from human basophils: II. Biochemical characterization of the reaction, J. Immunol., 117, 450 (1976)
The results of tests (1) and (2) are shown in Table 1 in which each figure in the "Inhibition of Histamine Release" column denotes the lowest effective concentration to inhibit the release of histamine.

[1] = system: passive cutaneous anaphylaxis (PCA); experiment: Inhibitory effects on passive cutaneous anaphylaxis (PCA); type: in vivo, male SD rat; conditions: 100 mg/kg orally one hour prior to the antigen challenge, rat; for inhibition in vivo at 100 mg/kg: po, 1 h, read-out: P C A (p.o), degree of inhibition
Protocol: A male SD rat weighing about 300 g was used, whose hair on the back had been shaved with an electric clipper. The back skin was passively sensitized by intradermal injection of 0.1 ml of anti-OA mouse serum (IgE like antibody) which had been diluted to three concentration levels. 4 Hours later, the rat was challenged by intravenous injection of an antigen solution of 2 ml/kg containing OA (1 mg/ml) and Evans blue (0.5 mg/ml). 30 Minutes after the antigen challenge, the rat was decapitated and exsanguinated. Then, the skin was reflected, and the area of blue spots was measured in milimeters by multiplying the longer diameter by the shorter diameter. […] The degree of inhibition of the test compound is expressed by the following notations.
±: 0-25% inhibition with no significant difference from the control
±: 25-50% inhibition with a significant difference from the control
++: 50-75% inhibition with a significant difference from the control
+++: 75-100% inhibition with a significant difference from the control
Each test pharmaceutical compound was suspended in a 0.2% carboxymethylcellulose solution and administered orally at a rate of 100 mg/kg one hour prior to the antigen challenge. Disodium cromoglycate which was known as an anti-allergic drug was employed as a control or reference substance.

[2] = Acute toxic test (LD50, up-down method); conditions: in vivo; oral, male SD rat, 72 hours after administration
Protocol: Each of the compounds shown in Table 2 was suspended in a 0.5% carboxymethylcellulose solution and administered orally to a male SD rat (5 weeks old). Upon the lapse of 72 hours after the administration, the LD50 value was determined by the up-down method.

Row | SMILES | minimal effective concentration (peritoneal cells) [µg/mL] | inhibition in vivo at 100 mg/kg [1] [%] | other results
1 | CC1CCc2oc3ccc(C(=O)Nc4ccccc4C(=O)O)cc3c(=O)c2C1 (stereo not drawn) | 0.3 | 0 to 25 | –
2 | O=C(OC1CCc2oc3ccc(-c4nnn[nH]4)cc3c(=O)c2C1)c1ccccc1 (stereo not drawn) | 10 | – | –
3 | CC(C)(C)C1CCc2oc3ccc(C(=O)Nc4nnn[nH]4)cc3c(=O)c2C1 (stereo not drawn) [2-CONHTz 7-tert.Bu, 7-(t-butyl)-5,6,7,8-tetrahydro-N-(5'-tetrazolyl)-9-oxo-xanthene-2-carboxylic acid amide] | 1 | 0 to 25 | –
4 | Cc1cc(C(=O)O)cc2c(=O)c3c(oc12)CCCC3 [2-COOH 4-CH3, 4-methyl-5,6,7,8-tetrahydro-9-oxo-xanthene-2-carboxylic acid] | – | 50 to 75 | –
5 | CC1CCc2oc3ccc(C(=O)O)cc3c(=O)c2C1 (stereo not drawn) [2-COOH 7-CH3, 7-methyl-5,6,7,8-tetrahydro-9-oxo-xanthene-2-carboxylic acid] | 0.3 | – | –
6 | CC(C)(C)C1CCc2oc3ccc(C(=O)O)cc3c(=O)c2C1 (stereo not drawn) [2-COOH 7-tert.Bu, 7-(t-butyl)-5,6,7,8-tetrahydro-9-oxo-xanthene-2-carboxylic acid] | 0.3 | 75 to 100 | –
7 | Cc1cc(-c2nnn[nH]2)cc2c(=O)c3c(oc12)CCCC3 [2-Tz 4-CH3, 4-methyl-5,6,7,8-tetrahydro-2-(5'-tetrazolyl)-9-xanthone] | 0.1 | – | –
8 | CC1CCc2oc3ccc(-c4nn[nH]n4)cc3c(=O)c2C1 (stereo not drawn) [2-Tz 7-CH3, 2-methyl-1,2,3,4-tetrahydro-7-(5'tetrazolyl)-9-xanthone] | – | – | Inhibition of Histamine release (lowest effective concentration to inhibit the release of histamine) (peritoneal cells): 0.01 µg/mL; P C A (p.o), degree of inhibition [1]: ± (0-25% inhibition with no significant difference from the control)
9 | O=C(O)C1CCc2oc3ccc(-c4nnn[nH]4)cc3c(=O)c2C1 (stereo not drawn) [2-Tz 7-COOH] | 0.01 | – | –
10 | CC(C)(C)C1CCc2oc3ccc(-c4nnn[nH]4)cc3c(=O)c2C1 (stereo not drawn) [2-Tz 7-tert.Bu, 2-(t-butyl)-1,2,3,4-tetrahydro-7-(5'-tetrazolyl)-9-xanthone] | 0.1 | – | –
11 | Cc1ccc2c(=O)c3c(oc2c1)CCC(C(=O)Nc1nnn[nH]1)C3 (stereo not drawn) [3-CH3 7-CONHTz] | 3 | 0 to 25 | –
12 | Cc1ccc2c(=O)c3c(oc2c1)CCC(c1nnn[nH]1)C3 (stereo not drawn) [3-CH3 7-Tz, 6-Methyl-1,2,3,4-tetrahydro-2-(5'-tetrazolyl)-9-oxo-xanthene] | 1 | – | –
13 | CC1CCc2oc3cc(-c4nnn[nH]4)ccc3c(=O)c2C1 (stereo not drawn) [3-Tz 7-CH3, 2-methyl-1,2,3,4-tetrahydro-6-(5'-tetrazolyl)-9-xanthone] | – | 50 to 75 | –
14 | O=C(O)c1cc(=O)c2c(OCC(O)COc3cccc4oc(C(=O)O)cc(=O)c34)cccc2o1 [Disodium cromoglycate, reference compound] | 3 | 0 to 25 | –
15 | O=C(Nc1nnn[nH]1)c1ccc2oc3c(c(=O)c2c1)CCCC3 [Example 2-CONHTz, 5,6,7,8-tetrahydro-N-(5'-tetrazolyl)-9-oxo-xanthene-2-carboxylic acid amide] | 0.1 | – | –
16 | O=C(O)c1ccc2oc3c(c(=O)c2c1)CCCC3 [Example 2-COOH, 5,6,7,8-Tetrahydro-9-oxo-xanthene-2-carboxylic acid] | 10 | – | LD50 at 72 h [2]: > 4000 mg/kg
17 | O=c1c2c(oc3ccc(-c4nnn[nH]4)cc13)CCCC2 [Example 2-Tz, 1,2,3,4-Tetrahydro-7-(5'-tetrazolyl)-9-xanthone] | 0.01 | – | LD50 at 72 h [2]: > 4000 mg/kg
18 | O=C(O)c1ccc2c(=O)c3c(oc2c1)CCCC3 [Example 3-COOH, 5,6,7,8-tetrahydro-9-oxo-xanthene-3-carboxylic acid] | 10 | – | –
19 | O=c1c2c(oc3cc(-c4nnn[nH]4)ccc13)CCCC2 [Example 3-Tz, 5,6,7,8-tetrahydro-3-(5'-tetrazolyl)-9-xanthone] | 0.3 | 50 to 75 | –
20 | Cc1ccc2c(=O)c3c(oc2c1)CCC(C(=O)Nc1ccccc1C(=O)O)C3 (stereo not drawn) [drawing 19] | 3 | – | –
21 | O=C(Nc1ccccc1C(=O)O)c1ccc2oc3c(c(=O)c2c1)CCCC3 [drawing 20] | 1 | – | P C A (p.o), degree of inhibition [1]: + +
22 | O=C(Nc1ccccc1C(=O)O)c1ccc2oc3c(c(=O)c2c1)CCCC3 [drawing 25] | – | – | LD50 at 72 h [2]: > 4000 mg/kg
23 | Cc1ccc2c(=O)c3c(oc2c1)CCC(C(=O)Nc1ccccc1C(=O)O)C3 (stereo not drawn) [drawing 26] | – | – | LD50 at 72 h [2]: > 4000 mg/kg
